This assay addresses T1, PylRSc (truncated PylRS, residues 185-454); mutant DFRSc (Methanosarcina mazei, UniProt Q8PWY1, S193R/N346G/C348Q/V401G, form not given).
T1 construct: gene pylS; C-terminal catalytic domain, residues 185-454, expressed in E. coli BL21 (DE3), Ni-NTA purified (DFRSc)
The assay is described as follows: ATP-[…]PPi exchange assay (amino acid activation). As to conditions: apparent, 2 mM ATP, 1 mM PPi, 10 mM MgCl2, pH 7.2, 37°C, header prints μM × 10^3, text mM, read-out: K M , μM × 10^3. It is filed as biochemical.

For three compounds, Km results are on record in publication PMC10613524, “Rational design of the genetic code expansion toolkit for in vivo encoding of D-amino acids” (Frontiers in Genetics, 2023).

T1 sequence (Q8PWY1 185-454 S193R/N346G/C348Q/V401G, form open): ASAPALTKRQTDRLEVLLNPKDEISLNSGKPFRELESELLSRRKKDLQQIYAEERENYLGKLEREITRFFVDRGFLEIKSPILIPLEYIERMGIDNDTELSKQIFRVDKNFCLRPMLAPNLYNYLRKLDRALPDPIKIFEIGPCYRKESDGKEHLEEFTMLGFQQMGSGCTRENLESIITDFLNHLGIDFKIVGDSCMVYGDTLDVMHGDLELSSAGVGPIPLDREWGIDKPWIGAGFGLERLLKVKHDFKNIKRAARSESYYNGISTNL

For `N[C@@H](Cc1cccc(C(F)(F)F)c1)C(=O)O` [compound 2, L-CF3-Phe], the Km is 7120 ± 1670 µM. Regarding `N[C@@H](Cc1cccc(Br)c1)C(=O)O` [compound 6, L-Br-Phe], the Km is 9800 ± 1650 µM. To `N[C@@H](Cc1cccc(Cl)c1)C(=O)O` [compound 4, L-Cl-Phe] belongs 5380 ± 1280 µM.
